The values below come from patent US20100076091A1, “COMPOSITION AND METHOD FOR SUPPRESSING LIPOOXIDATION OF ERYTHROCYTE” (TOHOKU UNIVERSITY, priority 2007, published 2010).

The subject of series [1] is peroxidized phospholipids in erythrocytes. Briefly: Erythrocyte peroxidized phospholipid level (PCOOH, PEOOH) after oral ingestion, by CL-HPLC. The series is classed as in vivo, human. Particulars: within 4 weeks after the start of ingestion, lutein 9.7 mg/day; 6 normal subjects. The procedure:
Packed cells (washed erythrocytes, 1.5 mL) prepared in a manner similar to that in 1-1 of Example 1 were added to a 50-mL screw cap glass centrifugation tube and then 1.5 mL of a 0.1 mM EDTA-2Na aqueous solution was added, followed by gentle agitation. The solution was allowed to stand in ice for 15 minutes and then 15 mL of isopropanol was added, followed by gentle agitation. The solution was allowed to stand for 30 minutes in ice and then 15 mL of chloroform was added. After vortexing, the solution was allowed to stand for 30 minutes in ice and then centrifuged (1000 g, 10 minutes, 4° C.). […] Solvent removal was carried out under nitrogen and then the total lipid level was measured by a gravimetric method. […]
Peroxidized phospholipids (phosphatidyl choline hydroperoxide (PCOOH) and phosphatidylethanolamine hydroperoxide (PEOOH)) in erythrocytes were measured by chemiluminescence-high performance liquid chromatography (CL-HPLC). […] After separation of PCOOH and PEOOH from other lipid components by HPLC, PCOOH and PEOOH are reacted with a luminescence reagent and then hydroperoxide-group-derived chemiluminescence is detected and quantitatively determined. Specifically, the above obtained chloroform/methanol (2:1, v/v) solution (40 μL) of total erythrocyte lipids was subjected to CL-HPLC and then peroxidized phospholipids were quantitatively determined. […]

For series [2] the following is noted: human, in vivo. The procedure: Blood (12 mL) of a subject after the subject had fasted for 12 hours was collected using EDTA. Blood was centrifuged (1000 g, 10 minutes, 4° C.), so that 6 mL of erythrocytes was obtained. To wash erythrocytes, 5-fold volume (30 mL) of physiological phosphate buffer (pH 8.0) was added and then centrifugation was carried out (2300 g, 10 minutes, 4° C.), thereby removing supernatants. This procedure was repeated 3 times, so that 4 mL of packed cells (washed erythrocytes) was obtained. • 1-2. Extraction of Carotenoid from Erythrocytes and Quantitative Determination Thereof
Two (2) mL of water was added to 2 mL of packed cells (washed erythrocytes) for hemolysis of erythrocytes. […] Fifty (50) μL of the solution was subjected to the following UV-HPLC analysis, so that erythrocyte carotenoid was quantitatively determined. […]
To examine whether the ingested xanthophyll would be actually transferred to erythrocytes so as to suppress accumulation of peroxidized phospholipids, lutein that exists at the highest concentration among human erythrocyte xanthophyll members was administered to 6 normal subjects (3 male subjects and 3 female subjects) for 4 weeks. […] Erythrocytes were separated from the thus obtained blood and then the concentration of erythrocyte lutein and the peroxidized phospholipid level were measured. […]

Series [3] concerns erythrocytes. Kind of series: Search for ingredients capable of preventing lipoperoxidation of erythrocytes.

For `CC1=C[C@H](O)CC(C)(C)[C@H]1/C=C/C(C)=C/C=C/C(C)=C/C=C/C=C(C)/C=C/C=C(C)/C=C/C1=C(C)C[C@@H](O)CC1(C)C` [lutein], in series [1], the “peroxidized phospholipid level in erythrocytes compared with the level before the start of ingestion” value is given as “significantly decreased”.
`CC1=C(/C=C/C(C)=C/C=C/C(C)=C/C=C/C=C(C)/C=C/C=C(C)/C=C/C2=C(C)C[C@@H](O)CC2(C)C)C(C)(C)C[C@H](O)C1` [zeaxanthin]: in series [2], the “concentration of erythrocyte zeaxanthin, average” value is listed as 52 pmol/g hemoglobin.
Take `Cc1c(C)c2c(c(C)c1O)CC[C@@](C)(CCC[C@H](C)CCC[C@H](C)CCCC(C)C)O2` [α-tocopherol]: the “prevention of lipoperoxidation of erythrocytes” value in series [3] is “has no such effects”.
